# Substitutions are numbered along the chain they refer to.
# How the values were obtained:
# rM1 = target: T1, rM1 (Rattus norvegicus, UniProt P08482); assay: Calcium mobilization assay in CHO-K1 cells stably expressing rat M1 (low throughput, Flexstation II); format: cell-based
# T1 construct: host or cells: CHO-K1
# T1 sequence (P08482 1-460): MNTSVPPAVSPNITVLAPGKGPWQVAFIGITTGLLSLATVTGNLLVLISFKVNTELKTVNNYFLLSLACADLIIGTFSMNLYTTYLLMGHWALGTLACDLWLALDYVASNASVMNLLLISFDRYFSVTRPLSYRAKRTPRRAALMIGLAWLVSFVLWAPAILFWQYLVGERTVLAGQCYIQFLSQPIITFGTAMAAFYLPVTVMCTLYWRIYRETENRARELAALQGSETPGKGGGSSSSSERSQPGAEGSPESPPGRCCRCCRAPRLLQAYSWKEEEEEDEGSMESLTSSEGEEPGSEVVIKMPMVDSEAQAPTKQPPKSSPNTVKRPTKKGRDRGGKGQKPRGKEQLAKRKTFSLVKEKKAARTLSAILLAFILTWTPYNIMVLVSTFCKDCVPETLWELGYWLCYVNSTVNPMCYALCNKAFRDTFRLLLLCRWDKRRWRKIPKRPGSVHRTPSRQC
# Excerpt: (§1) Chinese hamster ovary (CHO-K1) cells stably expressing rat (r) M1 were purchased from the American Type Culture Collection and cultured according to their indicated protocol. CHO cells stably expressing human (h)M2, hM3, and hM5 were described previously (Levey et al., 1991); hM1 and hM4 cDNAs were purchased from Missouri S&T cDNA Resource; rM4 cDNA was provided by T. I. Bonner (National Institutes of Health, Bethesda, Md.). hM1, hM4, and rM4 cDNAs were used to stably transfect CHO-K1 cells purchased from the American Type Culture Collection using Lipofectamine2000. To make stable hM2, hM4 and rM4 cell lines for use in calcium mobilization assays, these cells also were stably transfected with a chimeric G-protein (Gqi5) (provided by B. R. Conklin, University of California, San Francisco) using Lipofectamine 2000. rM1, hM3, and hM5 cells were grown in Ham's F-12 medium containing 10% heat-inactivated fetal bovine serum (FBS), 20 mM HEPES, and 50 μg/mL G418 sulfate. hM2-Gqi5 and hM4-Gqi5 cells were grown in the same medium also containing 500 μg/mL Hygromycin B. Stable rM4-Gqi5 cells were grown in DMEM containing 10% heat-inactivated FBS, 20 mM HEPES, 400 μg/mL G418 sulfate, and 500 μg/mL Hygromycin B. The rat M1 Y381A orthosteric mutant receptor cDNA was generated using the Quik-Change site-directed mutagenesis kit (Stratagene) and verified by sequencing. CHO-K1 cells were stably transfected with this cDNA using Lipofectamine2000 and screened for expression based on calcium mobilization in response to the allosteric M1 agonist N-desmethylclozapine.
# For low throughput measurement of agonist-evoked increases in intracellular calcium, CHO-K1 cells stably expressing muscarinic receptors were plated in 100 μL of growth medium at 5×10^4 (rM1, hM3, and hM5) or 6×10^4 cells per well (rM1 Y381A, hM2, and rM4) in Costar 96-well black-walled, tissue culture (TC)-treated, clear-bottom plates (Fisher). Cells were incubated overnight at 37° C. and 5% CO2. The next day, medium was removed from the cells, and they were incubated with 50 μL of 2 μM Fluo-4/acetoxymethyl ester (Invitrogen, Carlsbad, Calif.) prepared as a 2.3 mM stock in DMSO and mixed in a 1:1 ratio with 10% (w/v) Pluronic F-127 and diluted in assay buffer [HBSS (Invitrogen) supplemented with 20 mM HEPES and 2.5 mM probenecid, pH 7.4] for 1 h at 37° C. and 5% CO2. Dye was removed and replaced with 50 μL of assay buffer. For calcium fluorescence measurements, CRCs of compounds (50 μl, 2×) were added 19 s after the beginning of data collection via a Flexstation II (Molecular Devices, Sunnyvale, Calif.). Fluorescence imaging continued for a total of 130 s acquisition time using an excitation wavelength of 488 nm, an emission wavelength of 525 nm, and a cutoff wavelength of 515 nm. All of the peaks of the calcium response were normalized to the response to a maximally effective concentration of ACh (ECmax). These normalized peak calcium response values were fit using GraphPad Prism version 4.0 to a four-parameter logistic equation to determine EC50 values.
# hM1 = target: T2, hM1 (Homo sapiens, UniProt P11229); assay: Calcium mobilization assay in CHO-K1 cells stably expressing human M1 (high throughput, FDSS 6000); format: cell-based
# T2 construct: host or cells: CHO-K1
# T2 sequence (P11229 1-460): T1 sequence (P08482 1-460) with V5A, S254T, S309P, K320R, G337A, V413I
# Excerpt: as §1
# For high throughput measurement of agonist-evoked increases in intracellular calcium, CHO-K1 cells stably expressing muscarinic receptors were plated in growth medium lacking G418 and hygromycin at 15,000 cells/20 μL/well (hM1, hM2-Gqi5, hM3, hM4-Gqi5, and hM5) in Greiner 384-well black-walled, tissue culture (TC)-treated, clear-bottom plates (VWR). Cells were incubated overnight at 37° C. and 5% CO2. The next day, cells were washed using an ELX 405 (BioTek) with three washes (50 μL) of assay buffer then aspirated to 15 μL. Next, 5 μL of 8 μM Fluo-4/acetoxymethyl ester (Invitrogen, Carlsbad, Calif.) prepared as a 2.3 mM stock in DMSO and mixed in a 1:1 ratio with 10% (w/v) Pluronic F-127 and diluted in assay buffer was added to the wells and the cell plates were incubated for 45 min at 37° C. and 5% CO2. Dye was removed by washing with the ELX 405 (three 50 μL washes of assay buffer) then aspirated to 20 μL. Agonist and compound master plates were formatted in an 11 point CRC format (1:3 dilutions) in 100% DMSO with a starting concentration of 10 mM using the BRAVO liquid handler (Agilent). Test compound CRCs were then transferred to daughter plates ([…]) using the Echo acoustic plate reformatter (Labcyte, Sunnyvale, Calif.) and then diluted into assay buffer (40 μL) to a 2× stock using a Thermo Fisher Combi (Thermo Fisher Scientific, Waltham, Mass.). Calcium flux was measured using the Functional Drug Screening System (FDSS) 6000 (Hamamatsu Corporation, Tokyo, Japan) as an increase in the fluorescent static ratio. 20 μL of Agonist Compounds were applied to cells using the automated system of the FDSS 6000 at 4 s into the 300 s protocol and the data were collected at 1 Hz. Concentration-response curves were generated using a four-parameter logistical equation in XLfit curve fitting software (IDBS, Bridgewater, N.J.) for Excel (Microsoft, Redmond, Wash.) or Prism (GraphPad Software, Inc., San Diego, Calif.).
structure (smiles),measurement,setting,value
"CCOC(=O)N1C2CCC1CC(N1CCC[C@@H](NC(=O)c3ccccc3C)C1)C2 (stereo partly drawn) [Example 2, ethyl 3-((R)-3-(2-methylbenzamido)piperidin-1-yl)-8-azabicyclo[3.2.1]octane-8-carboxylate]",EC50,rM1,5 nM
same,Emax,"rM1; RM1, read-out: Efficacy (% Max ACh)",94%
same,EC50,hM1,53 nM
same,Emax,"hM1; HM1, read-out: Efficacy (% Max ACh)",88%

# Source: patent US20130197027A1, “HETEROCYCLYL-AZABICYCLO[3.2.1]OCTANE ANALOGS AS SELECTIVE M1 AGONISTS AND METHODS OF MAKING AND USING SAME” (priority 2010, published 2013)
